# Reference: patent publication US8916565B2, “Pyrrolopyrazine-spirocyclic piperidine amides as modulators of ion channels” (priority 2011, dated 2014)
# Molecular target: human NaV subtype, like NaV 1.7 (Homo sapiens, UniProt Q15858)
# Assay: E-VIPR optical membrane potential assay with electrical stimulation
# Type: cell-based
# Conditions: active against one or more sodium channels; Table 3 does not name the assay or NaV subtype; read-out: Binned Activity Data (IC50)
# Sequence of human NaV subtype, like NaV 1.7 (Q15858 whole entry): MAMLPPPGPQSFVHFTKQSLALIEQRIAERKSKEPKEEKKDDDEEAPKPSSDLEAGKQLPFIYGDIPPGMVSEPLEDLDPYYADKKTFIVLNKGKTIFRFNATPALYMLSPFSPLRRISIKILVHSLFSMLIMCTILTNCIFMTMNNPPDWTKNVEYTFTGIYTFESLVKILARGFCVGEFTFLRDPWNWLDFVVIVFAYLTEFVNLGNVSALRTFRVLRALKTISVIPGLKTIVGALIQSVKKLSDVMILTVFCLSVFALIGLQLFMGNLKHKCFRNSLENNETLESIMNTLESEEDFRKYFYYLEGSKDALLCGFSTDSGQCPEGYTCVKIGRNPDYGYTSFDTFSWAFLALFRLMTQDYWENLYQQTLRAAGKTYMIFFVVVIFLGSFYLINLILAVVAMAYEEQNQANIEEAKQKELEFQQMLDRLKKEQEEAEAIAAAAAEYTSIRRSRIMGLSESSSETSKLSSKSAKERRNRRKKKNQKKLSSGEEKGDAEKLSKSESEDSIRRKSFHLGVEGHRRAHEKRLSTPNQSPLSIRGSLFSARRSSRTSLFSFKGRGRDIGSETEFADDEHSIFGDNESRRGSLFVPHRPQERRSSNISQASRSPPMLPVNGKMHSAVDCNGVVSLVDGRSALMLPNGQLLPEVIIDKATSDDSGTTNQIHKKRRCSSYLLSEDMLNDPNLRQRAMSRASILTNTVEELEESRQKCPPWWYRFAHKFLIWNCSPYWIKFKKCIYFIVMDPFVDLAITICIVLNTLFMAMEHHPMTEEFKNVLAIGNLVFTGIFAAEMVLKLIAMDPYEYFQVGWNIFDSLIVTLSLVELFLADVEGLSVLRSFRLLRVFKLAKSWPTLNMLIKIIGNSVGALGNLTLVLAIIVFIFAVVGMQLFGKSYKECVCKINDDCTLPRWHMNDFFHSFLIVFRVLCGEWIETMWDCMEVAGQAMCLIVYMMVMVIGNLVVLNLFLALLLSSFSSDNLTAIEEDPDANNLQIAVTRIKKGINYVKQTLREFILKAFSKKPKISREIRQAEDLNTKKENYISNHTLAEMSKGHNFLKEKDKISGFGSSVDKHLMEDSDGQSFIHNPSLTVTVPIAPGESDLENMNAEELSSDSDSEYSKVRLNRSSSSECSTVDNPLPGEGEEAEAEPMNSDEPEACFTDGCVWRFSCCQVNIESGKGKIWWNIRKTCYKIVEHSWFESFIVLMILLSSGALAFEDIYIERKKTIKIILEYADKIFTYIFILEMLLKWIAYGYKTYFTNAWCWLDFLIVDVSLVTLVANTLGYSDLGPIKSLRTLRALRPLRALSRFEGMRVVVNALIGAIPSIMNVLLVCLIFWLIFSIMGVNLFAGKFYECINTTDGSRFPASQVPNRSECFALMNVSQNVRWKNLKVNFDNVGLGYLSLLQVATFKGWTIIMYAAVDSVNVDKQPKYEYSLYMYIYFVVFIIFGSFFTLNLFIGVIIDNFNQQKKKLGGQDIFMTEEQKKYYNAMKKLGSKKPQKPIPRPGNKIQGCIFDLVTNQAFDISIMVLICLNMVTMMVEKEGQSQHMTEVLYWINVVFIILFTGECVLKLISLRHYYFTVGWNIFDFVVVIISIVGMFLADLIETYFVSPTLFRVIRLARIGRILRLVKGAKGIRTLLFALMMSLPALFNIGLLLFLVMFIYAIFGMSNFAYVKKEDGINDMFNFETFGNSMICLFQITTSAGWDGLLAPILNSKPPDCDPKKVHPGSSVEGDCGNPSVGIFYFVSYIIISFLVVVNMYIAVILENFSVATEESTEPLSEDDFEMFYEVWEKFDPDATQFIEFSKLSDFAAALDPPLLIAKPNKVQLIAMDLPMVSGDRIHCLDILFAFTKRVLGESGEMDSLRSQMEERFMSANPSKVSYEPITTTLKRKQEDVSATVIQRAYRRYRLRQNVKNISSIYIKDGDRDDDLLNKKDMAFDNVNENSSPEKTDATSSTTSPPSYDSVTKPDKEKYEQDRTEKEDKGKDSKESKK
row,Compound,IC50
1,Cc1cc(C(=O)N2CCC3(CC2)c2ccc(C(F)(F)C(F)(F)F)n2CCN3C)ccc1S(=O)(=O)C(C)C [Compound 326],≤ 2000 nM
2,CN1CCn2c(C(=O)C(F)(F)F)ccc2C12CCN(C(=O)c1ccc(OS(=O)(=O)C(F)(F)F)cc1)CC2 [Compound 517],≤ 2000 nM
3,COc1ccc(C(=O)N2CCC3(CC2)c2ccc(C(=O)c4ccccc4)n2CCN3C)cc1C [Compound 694],2000 to 5000 nM
4,Cc1cc(C(=O)N2CCC3(CC2)c2ccc(C(=O)C(F)(F)F)n2CCN3C)ccc1Cl [Compound 1],2000 to 5000 nM
5,CCc1ccc(C(=O)N2CCC3(CC2)c2ccc(C(F)(F)F)n2CCN3C)cc1OC [Compound 629],≤ 2000 nM
6,COc1cc(C(=O)N2CCC3(CC2)N[C@H](C)Cn2c(C(F)(F)F)ccc23)ccc1OC(C)C [Compound 179],2000 to 5000 nM
7,CN1CCn2c(C(F)(F)F)ccc2C12CCN(C(=O)c1ccc(Cl)cc1)CC2 [Compound 403],> 5000 nM
8,Cc1cc(S(=O)(=O)C(C)C)ccc1C(=O)N1CCC2(CC1)c1ccc(C(F)(F)F)n1CCN2C [Compound 498],≤ 2000 nM
9,CC(=O)c1ccc2n1CCN(C)C21CCN(C(=O)c2ccc(Cc3ccccc3)cc2)CC1 [Compound 260],2000 to 5000 nM
10,COCCOc1ccc(C(=O)N2CCC3(CC2)c2ccc(C(=O)C(F)(F)F)n2CCN3C)cc1 [Compound 434],> 5000 nM
11,CN1CCn2c(C(F)(F)F)ccc2C12CCN(C(=O)c1ccccc1-c1ccccc1)CC2 [Compound 393],> 5000 nM
12,CN1CCn2c(C(=O)C3CC3)ccc2C12CCN(C(=O)c1ccc(COCCC(F)(F)F)cc1)CC2 [Compound 627],≤ 2000 nM
13,Cc1cc(C(=O)N2CCC3(CC2)c2ccc(C(=O)c4ccccc4)n2CCN3C)ccc1O [Compound 632],≤ 2000 nM
14,CNS(=O)(=O)c1ccc(C(=O)N2CCC3(CC2)NCCn2c(C(F)(F)F)ccc23)cc1C [Compound 283],2000 to 5000 nM
15,CN1CCn2c(C(F)(F)F)ccc2[C@]12CCN(C(=O)c1ccc(S(=O)(=O)NC3CC3)cc1)C[C@H]2F [Compound 244],≤ 2000 nM
16,COCC#Cc1ccc(C(=O)N2CCC3(CC2)c2ccc(C(C)=O)n2CCN3C)cc1F [Compound 615],> 5000 nM
17,CC(=O)c1ccc2n1CCN(C)C21CCN(C(=O)c2ccc(OCC3CC3)c(F)c2)CC1 [Compound 329],2000 to 5000 nM
18,CC(=O)c1ccc2n1CCN(C)C21CCN(C(=O)c2ccc(COc3ccccc3)cc2)CC1 [Compound 665],≤ 2000 nM
19,CC(C)Oc1ccc(C(=O)N2CCC3(CC2)c2ccc(C(F)(F)F)n2CCN3C)cc1Cl [Compound 100],≤ 2000 nM
20,CN1CCn2c(C(=O)C3(C)CC3)ccc2C12CCN(C(=O)c1ccc(S(=O)(=O)C(C)(C)C)cc1)CC2 [Compound 689],> 5000 nM
21,Cc1cc(C(=O)N2CCC3(CC2)c2ccc(C(=O)C(F)(F)F)n2CCN3C)ccc1C(F)(F)F [Compound 471],≤ 2000 nM
22,COc1ccc(C(=O)N2CCC3(CC2)c2ccc(C(=O)C(C)C)n2CCN3C)cc1C [Compound 338],≤ 2000 nM
23,COc1ccc(C(=O)N2CCC3(CC2)c2ccc(C(F)(F)F)n2CCN3C)cc1OC [Compound 321],> 5000 nM
24,Cc1cc(C(=O)N2CCC3(CC2)c2ccc(C(=O)C(C)(C)C)n2CCN3C)ccc1OCCCO [Compound 711],≤ 2000 nM
25,CC(=O)c1ccc2n1CCN(C)C21CCN(C(=O)c2ccc(CC(C)C)cc2)CC1 [Compound 5],≤ 2000 nM

row,Compound,IC50
1,CNC(=O)N1CCn2c(C(F)(F)F)ccc2C12CCN(C(=O)c1ccc(OC(C)C)cc1F)CC2 [Compound 474],2000 to 5000 nM
2,Cc1cc(C(=O)N2CCC3(CC2)NCC(C)(C)n2c(C(F)(F)F)ccc23)ccc1C(C)(C)O [Compound 128],≤ 2000 nM
3,Cc1cc(C(=O)N2CC[C@@]3(c4ccc(C(F)(F)F)n4CCN3C)[C@H](F)C2)ccc1OC(C)C [Compound 642],≤ 2000 nM
4,CC(=O)c1ccc2n1CCN(C)C21CCN(C(=O)c2ccc(COCCC(F)(F)F)cc2)CC1 [Compound 623],≤ 2000 nM
5,CCOC(=O)N1CCn2c(C#N)ccc2C12CCN(C(=O)c1ccc(OC(C)C)c(Cl)c1)CC2 [Compound 296],≤ 2000 nM
6,COc1cc(C(=O)N2CCC3(CC2)c2c(C#N)cc(C(F)(F)F)n2CCN3C)ccc1OC(C)C [Compound 742],2000 to 5000 nM
7,CC(=O)Nc1ccc(-c2ccc(C(=O)N3CCC4(CC3)c3ccc(C(=O)C(F)(F)F)n3CCN4C)cc2C)cn1 [Compound 653],2000 to 5000 nM
8,COc1ccc(C(=O)N2CCC3(CC2)c2ccc(C(=O)C(F)(F)F)n2C[C@@H](C)N3C)cc1C [Compound 432],2000 to 5000 nM
9,CNS(=O)(=O)c1ccc(C(=O)N2CCC3(CC2)c2ccc(C(F)(F)F)n2CCN3C)cc1 [Compound 716],≤ 2000 nM
10,CCCN(CCC)S(=O)(=O)c1ccc(C(=O)N2CCC3(CC2)c2ccc(C(=O)C(F)(F)F)n2CCN3C)cc1 [Compound 671],≤ 2000 nM
11,COc1ccc(C(=O)N2CCC3(CC2)c2ccc(Cl)n2CCN3C)cc1C(F)(F)F [Compound 624],2000 to 5000 nM
12,CC(C)Oc1ccc(C(=O)N2CCC3(CC2)c2cc(C(=O)C(F)(F)F)cn2C(C)(C)CN3C)cc1F [Compound 391],> 5000 nM
13,CCCCCc1ccc(C(=O)N2CCC3(CC2)c2ccc(Cl)n2CCN3C)cc1 [Compound 20],≤ 2000 nM
14,Cc1cc(C(=O)N2CCC3(CC2)c2ccc(C(=O)C(F)(F)F)n2CCN3C)ccc1-c1cnc(N(C)C)nc1 [Compound 621],≤ 2000 nM
15,Cc1cc(C(=O)N2CCC3(CC2)c2ccc(CC(F)(F)F)n2CCN3C)ccc1OC(C)C [Compound 279],≤ 2000 nM
16,Cc1nc(C(=O)N2CCC3(CC2)c2ccc(Cl)n2CCN3C)ccc1OC(C)C [Compound 648],≤ 2000 nM
17,Cc1cc(C(=O)N2CCC3(CC2)c2c(Br)cc(C(F)(F)F)n2CCN3C)ccc1OC(C)C [Compound 340],≤ 2000 nM
18,COCCN1CCn2c(C(F)(F)F)ccc2C12CCN(C(=O)c1ccc(OC(C)C)c(OC)c1)CC2 [Compound 186],≤ 2000 nM
19,CC(C)Oc1ccc(C(=O)N2CCC3(CC2)c2ccc(C(=O)C(C)(C)C)n2CCN3C)cc1C(F)(F)F [Compound 617],≤ 2000 nM
20,Cc1cc(C(=O)N2CCC3(CC2)c2ccc(C(=O)C(C)C)n2CCN3C)ccc1O [Compound 140],≤ 2000 nM
21,CCN(C)c1ccnc2c(C(=O)N3CCC4(CC3)c3ccc(C(F)(F)F)n3CCN4C)cnn12 [Compound 628],≤ 2000 nM
22,COc1ccc(C(=O)N2CCC3(CC2)NCC(C)n2c(C(=O)C(F)(F)F)ccc23)cc1Cl (centres unmarked) [Compound 341],≤ 2000 nM
23,CCC(C)(C)c1ccc(C(=O)N2CCC3(CC2)NC(C)(C)Cn2c(C(=O)C(F)(F)F)ccc23)cc1 [Compound 408],≤ 2000 nM
24,Cc1cc(N2CCCC2)n2ncc(C(=O)N3CCC4(CC3)c3ccc(C(F)(F)F)n3CCN4C)c2n1 [Compound 378],≤ 2000 nM
25,CNS(=O)(=O)c1ccc(C(=O)N2CCC3(CC2)c2ccc(C(F)(F)C(F)(F)F)n2CCN3C)cc1C [Compound 13],≤ 2000 nM

row,Compound,IC50
1,COc1cc(C(=O)N2CCC3(CC2)c2ccc(Cl)n2CCN3C)ccc1OCCOC(F)(F)F [Compound 650],≤ 2000 nM
2,CC(C)Oc1ccc(C(=O)N2CCC3(CC2)NCCn2c(C(F)(F)F)ccc23)c(F)c1 [Compound 367],≤ 2000 nM
3,CN1CCn2c(C(=O)C(F)(F)F)ccc2C12CCN(C(=O)c1ccc(-c3ccccc3)cc1)CC2 [Compound 172],≤ 2000 nM
4,Cc1cc(C(=O)N2CCC3(CC2)NCCn2c(C(F)(F)F)ccc23)ccc1C(C)(C)O [Compound 715],≤ 2000 nM
5,CN1CCn2c(C(=O)C(F)(F)F)ccc2C12CCN(C(=O)c1cc(O)ccc1F)CC2 [Compound 417],> 5000 nM
6,CC(C)Oc1ccc(C(=O)N2CCC3(CC2)c2c(F)cc(C(F)(F)F)n2CCN3C)cc1 [Compound 562],≤ 2000 nM
7,CN1CCn2c(ccc2C(F)(F)C(F)(F)F)C12CCN(C(=O)c1ccc(C(C)(C)O)c(F)c1)CC2 [Compound 253],≤ 2000 nM
8,C[C@H]1Cn2c(C(=O)C(F)(F)F)ccc2C2(CCN(C(=O)c3ccccc3OC(F)F)CC2)N1C [Compound 552],≤ 2000 nM
9,COc1cc(C(=O)N2CCC3(CC2)c2ccc(C(F)(F)F)n2C(CO)CN3C)ccc1OC(C)C (centres unmarked) [Compound 719],2000 to 5000 nM
10,CC(C)Oc1ccc(C(=O)N2CCC3(CC2)c2ccc(C(=O)C(F)(F)F)n2CCN3C)cc1F [Compound 40],≤ 2000 nM
11,COc1ccc(C(=O)N2CCC3(CC2)NC(C)(C)Cn2c(C(=O)C(F)(F)F)ccc23)c(C)c1 [Compound 738],≤ 2000 nM
12,CC(C)C(=O)c1ccc2n1CCN(C)C21CCN(C(=O)c2ccc(O)c(Cl)c2)CC1 [Compound 620],2000 to 5000 nM
13,CCCCOc1ccc(C(=O)N2CCC3(CC2)c2ccc(C(=O)C(F)(F)F)n2CCN3C)cc1 [Compound 592],≤ 2000 nM
14,CCC(=O)c1ccc2n1CCN(C)C21CCN(C(=O)c2ccc(C(C)(C)O)c(C)c2)CC1 [Compound 591],≤ 2000 nM
15,COc1cc(C(=O)N2CCC3(CC2)c2ccc(C(=O)C(F)(F)F)n2CCN3C)ccc1C(C)(C)C [Compound 423],≤ 2000 nM
16,Cc1cc(C(=O)N2CCC3(CC2)c2ccc(C(F)(F)F)n2CCN3C2CC2)ccc1C(C)(C)O [Compound 307],≤ 2000 nM
17,CC1CN(C)C2(CCN(C(=O)c3ccc(COCCC(F)(F)F)cc3)CC2)c2ccc(C(=O)C(F)(F)F)n21 (centres unmarked) [Compound 8],≤ 2000 nM
18,CC(C)Oc1ccc(C(=O)N2CCC3(CC2)c2ccc(C(=O)C(F)(F)F)n2C[C@H](C)N3C)cc1F [Compound 439],≤ 2000 nM
19,COCCN1CCn2cccc2C12CCN(C(=O)c1ccc(OC(C)C)c(C)c1)CC2 [Compound 269],≤ 2000 nM
20,CCCCOc1ccc(C(=O)N2CCC3(CC2)NCCn2c(C(F)(F)F)ccc23)cc1OC [Compound 181],≤ 2000 nM
21,CC(C)c1cc(C(=O)N2CCC3(CC2)c2ccc(C(=O)C(F)(F)F)n2CCN3C)ccc1O [Compound 50],≤ 2000 nM
22,COc1ccc(C(=O)N2CCC3(CC2)c2ccc(C(=O)C(F)(F)F)n2CCN3C)cc1C [Compound 663],≤ 2000 nM
23,COC(=O)C1CN(C)C2(CCN(C(=O)c3ccc(OC(C)C)c(OC)c3)CC2)c2ccc(C(F)(F)F)n21 (centres unmarked) [Compound 458],2000 to 5000 nM
24,CC(=O)c1ccc2n1CCN(C)C21CCN(C(=O)c2ccc(OC(C)C)c(C)n2)CC1 [Compound 691],≤ 2000 nM
